Data on 12 molecules can be found in publication PMC8269283 (ACS chemical neuroscience, 2018).

Like-named read-outs stand apart in the source and are kept apart here.

Experiment [1] relates to DAT. As to conditions: cited from earlier work.
Experiment [2] has as its system SERT. As to conditions: cited from earlier work.
Experiment [3] has as its target T1, SERT (Rattus norvegicus, UniProt P31652). Nature of the experiment: transporter-mediated release in rat brain synaptosomes, SERT. It is filed as biochemical.
The target in experiment [4] is T2, DAT (Rattus norvegicus, UniProt P23977). The experiment is described as follows: transporter-mediated release in rat brain synaptosomes, DAT. As to conditions: for DAT vs SERT Selectivity: SERT EC50 ÷ DAT EC50. It counts as biochemical.
In experiment [5] the target is NET (Rattus norvegicus, UniProt Q63380). The note with it: read-out: EC50 as NET releasing agent, previously reported; cited from earlier work.
The target in experiment [6] is T1, SERT. As to conditions: cited from earlier work.
The target in experiment [7] is T2, DAT. The note with it: cited from earlier work.
In experiment [8] the test system is SERT. As to conditions: read-out: IC50 reuptake inhibitor at SERT; cited from earlier work.
The subject of experiment [9] is NET. As to conditions: read-out: IC50 reuptake inhibitor at NET; cited from earlier work.
The subject of experiment [10] is DAT. As to conditions: read-out: IC50 reuptake inhibitor at DAT; cited from earlier work.
For experiment [11], the system named is SERT. As to conditions: read-out: IC50 reuptake inhibitor at SERT; cited from earlier work. This is another data set of the same source.
The subject of experiment [12] is NET. As to conditions: read-out: IC50 reuptake inhibitor at NET; cited from earlier work. The source holds these as a separate data set.

T2 sequence (P23977 whole entry): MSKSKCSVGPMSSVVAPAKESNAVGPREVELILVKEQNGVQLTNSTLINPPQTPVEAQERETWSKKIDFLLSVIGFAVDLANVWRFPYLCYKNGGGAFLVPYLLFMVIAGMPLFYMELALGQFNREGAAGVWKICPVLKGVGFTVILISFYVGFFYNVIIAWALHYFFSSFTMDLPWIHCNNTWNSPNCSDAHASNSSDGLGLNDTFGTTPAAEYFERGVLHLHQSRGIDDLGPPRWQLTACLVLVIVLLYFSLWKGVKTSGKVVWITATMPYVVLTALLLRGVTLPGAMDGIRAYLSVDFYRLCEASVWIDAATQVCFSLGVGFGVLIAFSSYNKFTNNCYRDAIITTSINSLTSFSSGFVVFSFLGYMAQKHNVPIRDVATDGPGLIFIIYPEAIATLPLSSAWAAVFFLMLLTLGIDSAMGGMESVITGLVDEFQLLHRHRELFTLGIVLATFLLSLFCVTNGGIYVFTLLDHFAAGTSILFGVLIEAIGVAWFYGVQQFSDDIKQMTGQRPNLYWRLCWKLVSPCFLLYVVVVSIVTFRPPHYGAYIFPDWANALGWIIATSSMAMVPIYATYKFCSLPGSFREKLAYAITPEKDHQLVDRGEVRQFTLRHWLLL
T1 sequence (P31652 whole entry): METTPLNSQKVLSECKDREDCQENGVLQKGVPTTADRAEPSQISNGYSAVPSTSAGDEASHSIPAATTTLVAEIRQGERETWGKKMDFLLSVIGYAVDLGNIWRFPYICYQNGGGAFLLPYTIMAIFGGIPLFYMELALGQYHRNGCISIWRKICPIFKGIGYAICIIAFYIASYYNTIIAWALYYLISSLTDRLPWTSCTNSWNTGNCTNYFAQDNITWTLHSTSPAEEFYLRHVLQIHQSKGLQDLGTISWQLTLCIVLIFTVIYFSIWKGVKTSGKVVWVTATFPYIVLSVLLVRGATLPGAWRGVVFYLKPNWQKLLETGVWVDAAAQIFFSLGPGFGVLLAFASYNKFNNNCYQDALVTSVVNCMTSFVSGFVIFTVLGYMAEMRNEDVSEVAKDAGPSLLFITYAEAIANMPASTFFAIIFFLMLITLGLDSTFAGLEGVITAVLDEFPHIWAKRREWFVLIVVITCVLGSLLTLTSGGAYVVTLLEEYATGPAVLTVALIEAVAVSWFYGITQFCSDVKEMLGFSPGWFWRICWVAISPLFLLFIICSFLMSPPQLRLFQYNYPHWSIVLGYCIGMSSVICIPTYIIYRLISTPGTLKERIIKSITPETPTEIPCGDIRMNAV
Sequence of NET (Rattus norvegicus, UniProt Q63380) (Q63380 1-617): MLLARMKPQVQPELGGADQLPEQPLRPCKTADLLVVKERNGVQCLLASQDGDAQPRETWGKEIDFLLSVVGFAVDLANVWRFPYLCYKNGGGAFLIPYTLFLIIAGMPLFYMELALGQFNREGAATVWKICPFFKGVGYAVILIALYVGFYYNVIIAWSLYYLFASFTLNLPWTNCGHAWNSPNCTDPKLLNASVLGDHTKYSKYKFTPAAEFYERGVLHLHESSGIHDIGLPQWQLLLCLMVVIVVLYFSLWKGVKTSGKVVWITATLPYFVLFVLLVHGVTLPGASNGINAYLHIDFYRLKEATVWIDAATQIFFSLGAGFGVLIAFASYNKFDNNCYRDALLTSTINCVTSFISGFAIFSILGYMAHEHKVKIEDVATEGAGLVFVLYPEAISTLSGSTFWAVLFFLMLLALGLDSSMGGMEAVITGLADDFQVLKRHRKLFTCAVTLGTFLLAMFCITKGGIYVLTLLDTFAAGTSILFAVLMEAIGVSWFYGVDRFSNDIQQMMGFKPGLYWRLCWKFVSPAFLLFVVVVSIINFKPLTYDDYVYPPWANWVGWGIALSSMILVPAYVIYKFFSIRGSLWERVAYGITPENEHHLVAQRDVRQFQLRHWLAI

With `CNC(C)C(=O)c1ccccc1C(F)(F)F` (stereo not drawn) [2-CF3 analog], the “less potent than 3e as a releasing agent at DAT” value in [1] was > 10 fold. In addition, the “less potent than 3e as a releasing agent at SERT” value in [2] was > 10 fold.
Broadly, the EC50 is the midpoint of the concentration-response curve. On to `CNC(C)C(=O)c1ccccc1Cl.Cl` (stereo not drawn) [2a, 1-(2-Chlorophenyl)-2-(methylamino)propan-1-one Hydrochloride], for which the EC50 amounted to 2810 nM in [3] and 179 nM in experiment [4]. Also, the “DAT vs SERT Selectivity” value in experiment [4] (2-substituted series) is given as 16.
The like results for `CNC(C)C(=O)c1ccccc1Br.Cl` (stereo not drawn) [2b, 1-(2-Bromophenyl)-2-(methylamino)propan-1-one Hydrochloride] were, in that order, 2840 nM, 650 nM and 4.
The matching figures for `CNC(C)C(=O)c1ccccc1C.Cl` (stereo not drawn) [2c, 2-(Methylamino)-1-(2-methylphenyl)propan-1-one Hydrochloride]: 490 nM, 81 nM and 6.
As to `CNC(C)C(=O)c1ccccc1OC.Cl` (stereo not drawn) [2d, 1-(2-Methoxyphenyl)-2-(methylamino)propan-1-one Hydrochloride], the EC50 in experiment [3] was 7220 nM; in experiment [4], 920 nM. Besides, the “DAT vs SERT Selectivity” value in [4] (2-substituted series) is on record as 8.
On to `CNC(C)C(=O)c1cccc(Cl)c1` (stereo not drawn) [3a, 3-Chloromethcathinone], for which the EC50 was 40 nM in [5]; 212 nM in experiment [6] (read-out: EC50 as SERT releasing agent, previously reported); 29 nM in experiment [7] (read-out: EC50 as DAT releasing agent, previously reported). For the same molecule, the “DAT vs SERT Selectivity” value in experiment [4] (3-substituted series) was found to be 8.
As usually defined, the IC50 is the point on the concentration scale where inhibition reaches its midpoint. For `CNC(C)C(=O)c1cccc(Br)c1.Cl` (stereo not drawn) [3b, 1-(3-Bromophenyl)-2-(methylamino)propan-1-one Hydrochloride], the figures for the EC50 in experiment [3] and in experiment [4] were 136 nM and 21 nM, respectively. Moreover, the figures for the IC50 in [8] and in [9] were 2000 nM and 158 nM, respectively. The “DAT vs SERT Selectivity” value in [4] (3-substituted series) is given as 6.
As for `CNC(C)C(=O)c1cccc(C)c1.Cl` (stereo not drawn) [3c, 2-(Methylamino)-1-(3-methylphenyl)propan-1-one Hydrochloride], the IC50 was 2600 nM in experiment [10], 9500 nM in experiment [11] and 270 nM in experiment [12]. Further, the EC50 stood at 268 nM in experiment [3] and 28 nM in experiment [4]. Further, the “DAT vs SERT Selectivity” value in [4] (3-substituted series) stood at 10.
With `CNC(C)C(=O)c1cccc(OC)c1.Cl` (stereo not drawn) [3d, 2-(Methylamino)-1-(3-methoxyphenyl)propan-1-one Hydrochloride], the EC50 in experiment [3] came out at 683 nM; in experiment [4], 109 nM. Also, the “DAT vs SERT Selectivity” value in [4] (3-substituted series) was found to be 6.
The matching figures for `CNC(C)C(=O)c1cccc(C(F)(F)F)c1.Cl` (stereo not drawn) [3e, 2-(Methylamino)-1-(3-(trifluoromethyl)phenyl)propan-1-one Hydrochloride]: 281 nM, 714 nM and 0.4.
Regarding `CNC(C)C(=O)c1ccc(C(F)(F)F)cc1` (stereo not drawn) [4e], the “SERT selectivity (SERT vs DAT) as a releasing agent” value in experiment [6] is recorded as 14 fold.
For the molecule `CNC(C)C(=O)c1ccccc1` (stereo not drawn) [compound 1, Methcathinone], the results for the “DAT vs SERT Selectivity” value in experiment [4] (2-substituted series) and in experiment [4] (3-substituted series) were 103 and 279, respectively. In addition, the “selectivity for DAT vs SERT as a releasing agent” value in experiment [7] is reported as > 300 fold.
